Columns and labels:
[1] = test system: BEAS-2B human bronchial epithelial cell line; assay: MTT assay, cytotoxicity of ketone compounds in BEAS-2B cell line; format: cell-based; settings: human, 48 h
Experimental: BEAS-2B (Korean Cell Line Bank), a human bronchial epithelial cell line, was cultured using RPMI 1640 medium (Gibco, USA) supplemented with 10% FBS until the cells grew to about a confluence of 70 to 80% in a 100 mm dish.
Among ketones belonging to mVOCs (microbial volatile organic compounds) exposed to the environment, acetone, 2-butanone, 2-pentanone, 2-hexanone and 2-heptanone were selected, and the chemicals were dissolved in filtered distilled water (DW). A vehicle concentration was set to 0.1% or less in all experiments.
MTT assay using a BEAS-2B cell line was performed in accordance with the method of Mossman et al. (J. Immunol. Methods, 65, 55-63, 1983).
Specifically, the cells were seeded at a density of 3.5×10^4 cells/well in a 24-well plate and treated with the five ketone compounds dissolved in filtered distilled water, prepared in Example 1-2. After 48 hours, the result was mixed with 5 mg/ml of MTT (3-4,5-dimethylthiazol-2,5-diphenyltetrazolium bromide), added to a tube and incubated at 37° C. for 3 hours. Then, the medium was removed, the formed formazan crystal was dissolved in 500 μl of DMSO, and then 100 μl of the solution was transferred to a 96-well plate to measure an OD (optical density) value at 540 nm.

[2] = test system: BEAS-2B human bronchial epithelial cell line; assay: Gene expression change by high-throughput RNA sequencing (NextSeq 500) in ketone-exposed BEAS-2B cells; format: cell-based
Experimental: RNA was extracted from cell samples of ketone-exposed and non-ketone-exposed groups using a TRIzol reagent (Life Technologies, USA) in accordance with the manufacturer's directions to isolate total RNA and the total RNA was purified using a RNeasy mini kit (Qiagen, USA). The concentration of each total RNA sample was determined by a ND-2000 spectrophotometer (Thermo Inc., DE, USA) as a spectrophotometer and Agilent 2100 Bioanalyzer (Agilent Technologies, USA).
The establishment of libraries from the total RNA obtained in Example 2-1 in the experimental group and the normal control group exposed to the ketones was carried out using a QuantSeq 3′ mRNA-Seq Library Prep Kit (Lexogen, Inc., Austria) in accordance with the manufacturer's directions. 500 ng of the total RNA was hybridized with an oligo-dT primer including an Illumina-compatible sequence at the 5′ end of RNA, followed by reverse transcription. After degradation of the RNA template, a second strand was synthesized using a random primer including an Illumina-compatible linker sequence at the 5′ end thereof. Double-stranded libraries were purified using magnetic beads to remove all reaction components. The library was amplified in order to add the entire adapter sequence required for cluster production, and the completed cDNA library was purified from the PCR components.
Sequencing was performed by high-throughput sequencing as single-end 75 sequencing using a NextSeq 500 (IIlumina, Inc., USA). Read count (RC) data was processed based on the quantile normalization method using EdgeR in R (R development Core Team, 2016) using Bioconductor (Gentleman et al., 2004). Gene classification was based on searches performed on DAVID (http://david.abcc.ncifcrf.gov/) and the Medline database (http://www.ncbi.nlm.nih.gov/).
The extracted data were analyzed through normalization using Agilent GeneSpring GX 12.6.1 (Agilent technologies, CA, USA) to analyze the expression pattern of each gene.

[3] = IC5 conc.: Acetone 5.38, 2-Butanone 22.27, 2-Pentanone 5.24, 2-Hexanone 14.82, 2-Heptanone 5.05 mM
[4] = IC20 conc.: Acetone 71.90, 2-Butanone 106.21, 2-Pentanone 39.38, 2-Hexanone 52.51, 2-Heptanone 20.22 mM

SMILES: CCCCCC(C)=O [2-Heptanone, 2-heptanone]
- concentration (105) providing a survival rate (viability) of 95% [1]: 5050 µM
- concentration (1020) providing a survival rate (viability) of 80% [1]: 20220 µM
- Fold change ADRA2A (NM_000681) [2, 3]: 0.321
- Fold change ATRNL1 (NR_074088) [2, 3]: 3.365
- Fold change C12orf79 (NR_046159) [2, 3]: 0.213
- Fold change C14orf80 (NR_046159) [2, 3]: 0.354
- Fold change CALML3 (NM_001286399) [2, 3]: 0.354
- Fold change CCDC184 (NM_001013635) [2, 3]: 4.098
- Fold change CD37 (NM_001040031) [2, 3]: 5.216
- Fold change CDHR1 (NM_001171971) [2, 3]: 0.386
- Fold change CHL1 (NM_001253387) [2, 3]: 0.122
- Fold change COL4A3 (NM_000091) [2, 3]: 4.774
- Fold change CRLF2 (NM_022148) [2, 3]: 0.355
- Fold change CSF3R (NM_172313) [2, 3]: 0.354
- Fold change DNMBP-AS1 (NR_024130) [2, 3]: 2.035
- Fold change EGR1 (NM_001964) [2, 3]: 0.410
- Fold change GNA14 (NM_004297) [2, 3]: 4.971
- Fold change LOC728752 (NR_036504) [2, 3]: 5.873
- Fold change PAX8 (NM_003466) [2, 3]: 4.275
- Fold change PRRT3-AS1 (NR_046734) [2, 3]: 2.285
- Fold change RBP3 (NM_002900) [2, 3]: 0.354
- Fold change SEPT14 (NM_207366) [2, 3]: 0.214
- Fold change SERPINA12 (NM_001304461) [2, 3]: 0.354
- Fold change SLC13A4 (NM_012450) [2, 3]: 4.638
- Fold change SPOCK2 (NM_001244950) [2, 3]: 4.800
- Fold change TSPAN1 (NM_005727) [2, 3]: 4.660
- Fold change USP12-AB1 (NR_046647) [2, 3]: 11.319
- Fold change VIPR†-AS1 (NR_046654) [2, 3]: 0.354
- Fold change XIRP1 (NM_001198621) [2, 3]: 0.354
- Fold change ZFP69B (NM_023070) [2, 3]: 3.346
- Fold change ZNF432 (NM_014650) [2, 3]: 3.207
- Fold change ZNF487 (NR_026693) [2, 3]: 0.354
- Fold change ADRA2A (NM_000681) [2, 4]: 0.179
- Fold change ATRNL1 (NR_074088) [2, 4]: 3.204
- Fold change C12orf79 (NR_046159) [2, 4]: 0.213
- Fold change C14orf80 (NR_046159) [2, 4]: 0.354
- Fold change CALML3 (NM_001286399) [2, 4]: 0.354
- Fold change CCDC184 (NM_001013635) [2, 4]: 6.381
- Fold change CD37 (NM_001040031) [2, 4]: 3.227
- Fold change CDHR1 (NM_001171971) [2, 4]: 0.216
- Fold change CHL1 (NM_001253387) [2, 4]: 0.335
- Fold change COL4A3 (NM_000091) [2, 4]: 8.193
- Fold change CRLF2 (NM_022148) [2, 4]: 0.355
- Fold change CSF3R (NM_172313) [2, 4]: 0.354
- Fold change DNMBP-AS1 (NR_024130) [2, 4]: 11.098
- Fold change EGR1 (NM_001964) [2, 4]: 0.381
- Fold change GNA14 (NM_004297) [2, 4]: 4.498
- Fold change LOC728752 (NR_036504) [2, 4]: 5.440
- Fold change PAX8 (NM_003466) [2, 4]: 4.602
- Fold change PRRT3-AS1 (NR_046734) [2, 4]: 2.525
- Fold change RBP3 (NM_002900) [2, 4]: 0.354
- Fold change SEPT14 (NM_207366) [2, 4]: 0.214
- Fold change SERPINA12 (NM_001304461) [2, 4]: 0.354
- Fold change SLC13A4 (NM_012450) [2, 4]: 11.825
- Fold change SPOCK2 (NM_001244950) [2, 4]: 2.838
- Fold change TSPAN1 (NM_005727) [2, 4]: 3.058
- Fold change USP12-AB1 (NR_046647) [2, 4]: 4.509
- Fold change VIPR†-AS1 (NR_046654) [2, 4]: 0.354
- Fold change XIRP1 (NM_001198621) [2, 4]: 0.354
- Fold change ZFP69B (NM_023070) [2, 4]: 2.674
- Fold change ZNF432 (NM_014650) [2, 4]: 4.845
- Fold change ZNF487 (NR_026693) [2, 4]: 0.354

From US20210115509A1, “BIOMARKER FOR IDENTIFYING SPECIFIC EXPOSURE TO KETONES AND METHOD OF IDENTIFICATION USING THE SAME” (KOREA INSTITUTE OF SCIENCE AND TECHNOLOGY, priority 2019, published 2021)
